Source: patent publication US20070191291A1, “Compound antibacterial drugs comprising n-acetyl-d-glucosamine” (priority 2003, published 2007)

Tests used:
[1] = test system: Bacillus cereus; assay: Test Example 2: preventing formation of bacterial CGC in vitro (K-B method); assay type: cell-based; settings: compound preparation N-acetyl-D-glucosamine (100 mg) and lincomycin (400 mg); control lincomycin (400 mg)
Method: (§1) E. coli (No. 33310, purchased from Chengdu Institute of Biological Products, the Ministry of Public Health) was used in the tests. Grid design was performed by using antibiotic with different concentrations and N-acetyl-D-glucosamine having an amount of from 10 mg to 300 mg. Streak plates were conducted separately, and K-B method was employed for drugs. Colonies at marginal part of drug inhibition zone were picked and were observed under microscope. If cell length was more than 50 μm and cell number was more than 5 in each visual field, it was deemed as CGC positive and was marked with “+”; while if cell length was not greater than 50 μm and cell number was within the range from 0 to 4 in each visual field, it was deemed as CGC negative and was marked with “−”. At this time, the ratio of two substances was called “effective ratio”.
(§2) Effects tests of compound preparation comprising N-acetyl-D-glucosamine and antibiotics for preventing the formation of bacterial CGC in vitro.
(§3) The tests were carried out in vitro, wherein gram-negative amphimicrodes, gram-negative anaerobes and gram-positive aerobes were separately coated on streak plates, test drugs and control drugs were separately dissolved with same volume of sterile water for injection, 10 μl of each drug was used for preparing drug-sensitive paper, K-B method was employed in the tests of drugs, and the inhibition situations of CGC formation were observed.

[2] = test system: Bacillus proteus; assay: as above; assay type: cell-based; settings: compound preparation N-acetyl-D-glucosamine (100 mg) and lincomycin (400 mg); control lincomycin (400 mg)
Method: as §1, §2, §3

[3] = test system: Bacteroides fragilis; assay: as above; assay type: cell-based; settings: compound preparation N-acetyl-D-glucosamine (100 mg) and lincomycin (400 mg); control lincomycin (400 mg)
Method: as §1, §2, §3

[4] = test system: Citro Bacter; assay: as above; assay type: cell-based; settings: compound preparation N-acetyl-D-glucosamine (100 mg) and lincomycin (400 mg); control lincomycin (400 mg)
Method: as §1, §2, §3

[5] = test system: Diphtheroid bacillus; assay: as above; assay type: cell-based; settings: compound preparation N-acetyl-D-glucosamine (100 mg) and lincomycin (400 mg); control lincomycin (400 mg)
Method: as §1, §2, §3

[6] = test system: E. coli; assay: as above; assay type: cell-based; settings: compound preparation N-acetyl-D-glucosamine (100 mg) and lincomycin (400 mg); control lincomycin (400 mg)
Method: as §1, §2, §3

[7] = test system: Klebsiella; assay: as above; assay type: cell-based; settings: compound preparation N-acetyl-D-glucosamine (100 mg) and lincomycin (400 mg); control lincomycin (400 mg)
Method: as §1, §2, §3

[8] = test system: Listeria; assay: as above; assay type: cell-based; settings: compound preparation N-acetyl-D-glucosamine (100 mg) and lincomycin (400 mg); control lincomycin (400 mg)
Method: as §1, §2, §3

[9] = test system: Nucleic Acid Bacter; assay: as above; assay type: cell-based; settings: compound preparation N-acetyl-D-glucosamine (100 mg) and lincomycin (400 mg); control lincomycin (400 mg)
Method: as §1, §2, §3

[10] = test system: rats infected and not infected by Bacillus typhi murium; assay type: in vivo, Wistar rats; settings: rats infected or not by Bacillus typhi murium; N-acetyl-D-glucosamine (100 mg)+lincomycin (400 mg) vs only lincomycin; consecutive week; 15 rats per group
[11] = test system: irritable bowel syndrome (IBS) caused by bacterial CGC; assay: Test Example 5: preventing irritable bowel syndrome (IBS) caused by bacterial CGC; assay type: in vivo, rats
Source text: On this basis, the rats were subjected to stimulations such as electric stimulation, intragastric administration with fructus zanthoxyli water, cold, constraint etc. in order to induce IBS, and the incidence rates of IBS of two groups were observed.

How did the CGC formation [1] turn out when `CCC[C@@H]1C[C@@H](C(=O)N[C@@H]([C@H]2O[C@H](SC)[C@H](O)[C@@H](O)[C@H]2O)[C@@H](C)O)N(C)C1` [Lincomycin, lincomycin] was run?
The CGC formation was “+ (If cell length was more than 50 μm and cell number was more than 5 in each visual field, it was deemed as CGC positive and was marked with “+”)”.

What about the CGC formation [2] of the same compound?
The CGC formation was “+ (If cell length was more than 50 μm and cell number was more than 5 in each visual field, it was deemed as CGC positive and was marked with “+”)”.

And the CGC formation [3]?
Its CGC formation is “+ (If cell length was more than 50 μm and cell number was more than 5 in each visual field, it was deemed as CGC positive and was marked with “+”)”.

And the CGC formation [4]?
The CGC formation was “+ (If cell length was more than 50 μm and cell number was more than 5 in each visual field, it was deemed as CGC positive and was marked with “+”)”.

And the CGC formation [5]?
Its CGC formation is “+ (If cell length was more than 50 μm and cell number was more than 5 in each visual field, it was deemed as CGC positive and was marked with “+”)”.

And the CGC formation [6]?
Its CGC formation is “+ (If cell length was more than 50 μm and cell number was more than 5 in each visual field, it was deemed as CGC positive and was marked with “+”)”.

What about the CGC formation [7] of the same compound?
The CGC formation was “+ (If cell length was more than 50 μm and cell number was more than 5 in each visual field, it was deemed as CGC positive and was marked with “+”)”.

What about the CGC formation [8] of the same compound?
The CGC formation was “+ (If cell length was more than 50 μm and cell number was more than 5 in each visual field, it was deemed as CGC positive and was marked with “+”)”.

What about the CGC formation [9] of the same compound?
Its CGC formation is “+ (If cell length was more than 50 μm and cell number was more than 5 in each visual field, it was deemed as CGC positive and was marked with “+”)”.

What about the “positive rates of stool CGC and intestinal mucosa CGC” value [10] of the same compound?
The value was 100%.

What about the “incidence rate of IBS” value ([11]; first of three values given respectively: electric stimulation) of the same compound?
Its value is 33%.

And the “CGCs in the rat stools after one week of drug withdrawal” value ([11]; rats, effective dosage for consecutive 10 days, 30 rats per group)?
The value was “still present”.

And the “CGCs in the stools of the rats” value ([11]; rats, effective dosage for consecutive 10 days, stools observed during administration and within 1 week after drug withdrawal, 30 rats per group)?
Its value is “a large amount of CGCs appeared”.

What about the “incidence rate of IBS” value ([11]; second of three values given respectively: intragastric administration with fructus zanthoxyli water) of the same compound?
Its value is 33%.

What about the “incidence rate of IBS” value ([11]; third of three values given respectively: cold, constraint etc.) of the same compound?
The value was 33%.
